One may read the MIC as the smallest concentration in the dilution series that meets the test's criterion for growth inhibition. Lower therefore signals a more susceptible organism.

Results on 27 molecules are retold here after US20150274639A1, “METHODS OF USE FOR COMPOSITIONS COMPRISING A BIOCIDAL POLYAMINE” (Curza Global, LLC, priority 2013, published 2015).

Molecules are shown by their SMILES. In brackets after ≈: the same amount, converted by molar mass.

In test [1] the test system is MRSA. Description: MIC in CAMHB, 96-well plate (10^5 to 10^2 CFU/mL in 24 hours). In kind it is cell-based, methicillin-resistant Staphylococcus aureus. The conditions noted are these: Staphylococcus aureus, MRSA, Table 5, class symbols. On the procedure: (§1) To determine the MIC of polyamine compounds, the protocol described herein was used.
In brief, a 0.5 McFarland of each bacterial isolate was made. A 0.5 McFarland is a measure of turbidity in a liquid sample that contains approximately 1×10̂^8 CFU/mL. The 0.5 McFarland standard was diluted in cation adjusted Mueller Hinton Broth (CAMHB), and […], of broth were added to a well of a 96-well plate. In addition, 50 μL of CAMHB that contained a desired concentration of antimicrobial were also added to the well for a final volume of 100 and a final concentration of approximately 5×10^4 CFU/well (which equated to approximately 5×10^5 CFU/mL). Each well contained a desired amount of polyamine compound in order to experimentally determine the MIC. Each 96-well plate was incubated at 37° C. for 24 hours. The contents of each well were plated on tryptic soy agar (TSA). TSA plates were incubated for 37° C. for 24 hours after which the number of CFU were counted and used to calculate the CFU/mL that remained after exposure to varying concentrations of compound. This procedure was repeated n=8 times for each concentration of antimicrobial. […]

Test [2] has as its system P. aeruginosa. The test is described as above. The conditions noted are these: Pseudomonas aeruginosa, Table 5, class symbols. In kind it is cell-based. The protocol:
as §1
In brief, a 0.5 McFarland of each bacterial isolate was made. A 0.5 McFarland is a measure of turbidity in a liquid sample that contains approximately 1×10̂^8 CFU/mL. The 0.5 McFarland standard was diluted in cation adjusted Mueller Hinton Broth (CAMHB), and […], of broth were added to a well of a 96-well plate. In addition, 50 μL of CAMHB that contained a desired concentration of antimicrobial were also added to the well for a final volume of 100 and a final concentration of approximately 5×10^4 CFU/well (which equated to approximately 5×10^5 CFU/mL). Each well contained a desired amount of polyamine compound in order to experimentally determine the MIC. Each 96-well plate was incubated at 37° C. for 24 hours. The contents of each well were plated on tryptic soy agar (TSA). TSA plates were incubated for 37° C. for 24 hours after which the number of CFU were counted and used to calculate the CFU/mL that remained after exposure to varying concentrations of compound. This procedure was repeated n=8 times for each concentration of antimicrobial.

Test [3] concerns biofilm formation. The note with it: Kolodkin-Gal et al., Cell 149 (2012), cited from earlier work.
Test [4] relates to biofilms of MRSA and P. aeruginosa. The note with it: understanding of the inventors, no own test described; cited from earlier work.
Test [5] concerns MRSA. The test can be described thus: MIC against MRSA as defined by CLSI (FIG. 25 series). In kind it is cell-based, methicillin-resistant Staphylococcus aureus. The conditions noted are these: Staphylococcus aureus. On the procedure:
To determine the MIC of the polyamine chains alone and the synthesized compounds against MRSA and P. aeruginosa ATCC 27853, a modified protocol from the Clinical and Laboratory Standards Institute (CLSI) guideline M26-A was used. […] All data was collected using cation adjusted MHB for standardization.
As mentioned, MRSA and P. aeruginosa ATCC 27853 were grown on Columbia blood agar plates prior to experimentation. From the blood agar plates, a 0.5 McFarland standard was made of each isolate. This equated to approximately 5×10^7 cells/mL for the MRSA isolate and approximately 3×10^7 cells/mL for the P. aeruginosa ATCC 27853 isolate. Of the 0.5 McFarland stock solution, 50 μL were added to MHB. […] All tests were performed such that a final volume of 5 mL of MHB were obtained. This provided a final bacterial concentration of approximately 5×10^5 cells/mL.
Each sample was incubated in glass test tubes at 37° C. for 24 hours, then plated in duplicate on tryptic soy agar (TSA) using a 10-fold dilution series. TSA plates were further incubated 24 hours at 37° C. The number of colony forming units (CFU) that grew were counted in order to calculate the number of bacteria that were present per mL in the original MHB solution.

For `NCCCNCCCNCc1ccc(-c2cc(CNCCCNCCCN)cc(CNCCCNCCCN)c2)cc1` [CZ-65], the MIC in test [1] and in test [2] was < 50 µM in each case.

In the case of `NCCCNCCCNCc1cc(CNCCCNCCCN)cc(-c2ccc(OC(F)(F)F)c(CNCCCNCCCN)c2)c1` [CZ-69], the MIC in test [1] and in test [2] was < 50 µM in each case.

As to `NCCCCCCNCc1cccc(CNCCCCCCN)c1` [CZ-26], the MIC in test [1] was 50 to 100 µM (≈ 16.7 to 33.5 µg/mL); in test [2], > 100 µM.

With `NCCCCNCc1ccccc1` [CZ-3], the MIC in test [1] was > 100 µM.

With `CN(C)CCCNCCCNCc1ccccc1` [CZ-6], the MIC in test [1] was > 100 µM.

Take `NCCCNCCCN` [norspermidine, N-(3-aminopropyl)propane-1,3-diamine]: in test [3], the “concentration at which biofilm formation is inhibited” value was 25 µM.

On to `NCCCNCCCNCCCNCc1ccccc1` [CZ-16], for which the minimal inhibitory concentration (MIC) in test [1] is > 100 µM.

In the case of `CC(C)Oc1ccc(-c2cc(CNCCCNCCCN)cc(CNCCCNCCCN)c2)cc1CNCCCNCCCN` [CZ-66], the MIC in test [1] and in test [2] was < 50 µM each time.

`COc1ccc(-c2cc(CNCCCNCCCN)cc(CNCCCNCCCN)c2)cn1` [CZ-72]: the MIC in test [1] and in test [2] was < 50 µM in each case.

With `NCCCCNCCCN` [spermidine], the “concentration at which active” value in test [3] (only active at much higher concentrations) is on record as ~1 mM.

In the case of `NCCCNCCCNCCCNCc1cccc(CNCCCNCCCNCCCN)c1` [CZ-57], the minimum inhibitory concentration (MIC) in test [1] is < 50 µM; in test [2], > 100 µM.

With `NCCCNCc1cccc(CNCCCN)c1` [CZ-12], the MIC in test [2] was > 100 µM.

For the molecule `NCCCNCCCNCCCNCc1cc(CNCCCNCCCNCCCN)cc(-c2ccccc2)c1` [CZ-73], the MIC in test [1] and in test [2] was < 50 µM each time.

In the case of `NCCCNCCCNCc1cc(CNCCCNCCCN)cc(-c2ccncc2)c1` [CZ-71], the MIC in test [1] is < 50 µM; in test [2], > 100 µM.

Regarding `NCCCNC(=O)c1cccc(C(=O)NCCCN)c1` [CZ-40], the MIC in test [2] is > 100 µM.

For `CC(C)(C)OC(=O)NCCCNCCCNCc1cc(CNCCCNCCCN)cc(CNCCCNCCCNC(=O)OC(C)(C)C)c1` [CZ-54], the MIC in test [1] and in test [2] was < 50 µM in each case.

For the molecule `NCCCCCCNCc1cc(CNCCCCCCN)cc(CNCCCCCCN)c1` [CZ-33], the MIC in test [1] was 50 to 100 µM (≈ 23.1 to 46.3 µg/mL); in test [2], > 100 µM.

As for `CN(C)CCCNCCCNCc1cccc(CNCCCNCCCN(C)C)c1` [CZ-43], the MIC in test [1] and in test [2] was > 100 µM each time.

Consider `O=CCCCC=O` [glutaraldehyde], for which the “biofilm dispersal effect (comparison antimicrobials)” value in test [4] is on record as “not seen”.

For `NCCCNCc1cc(CNCCCN)cc(CNCCCN)c1` [CZ-32], the values for the MIC in test [1], in test [2] and in test [5] were 50 to 100 µM (≈ 16.8 to 33.7 µg/mL), 50 to 100 µM (≈ 16.8 to 33.7 µg/mL) and 45 µg/mL (≈ 134 µM), respectively.

Molecule `NCCCNCCCNCc1cccc(CO)c1` [CZ-22] returned an MIC in test [1] of 50 to 100 µM (≈ 12.6 to 25.1 µg/mL).

Take `N=C(NCCCCCCNC(=N)NC(=N)Nc1ccc(Cl)cc1)NC(=N)Nc1ccc(Cl)cc1.O=C(O)[C@H](O)[C@@H](O)[C@H](O)[C@H](O)CO.O=C(O)[C@H](O)[C@@H](O)[C@H](O)[C@H](O)CO` [chlorhexidine gluconate]: in test [4], the “biofilm dispersal effect (comparison antimicrobials)” value was “not seen”.

`NCCCNCCCNCc1cccc(-c2cc(CNCCCNCCCN)cc(CNCCCNCCCN)c2)c1` [CZ-62]: the MIC in test [1] and in test [2] was < 50 µM throughout.

With `NCCCNCCCNCc1cc(CO)cc(CNCCCNCCCN)c1` [CZ-53], the MIC in test [1] is < 50 µM; in test [2] it was 50 to 100 µM (≈ 19.7 to 39.5 µg/mL).

Take `NCCCNCCCNCc1cc(CNCCCNCCCN)cc(-c2ccc3c(c2)OCO3)c1` [CZ-61]: the MIC in test [1] and in test [2] was < 50 µM in each case.

As to `Cc1cc(C)c(CNCCCN)c(C)c1CNCCCN` [CZ-19], in test [1], the MIC was > 100 µM.

On to `Cc1ccccc1-c1cc(CNCCCNCCCN)cc(CNCCCNCCCN)c1` [CZ-63], for which the MIC in test [1] and in test [2] was < 50 µM each time.
